Data on two compounds can be found in patent US10314816B2, “Antimicrobial compounds, compositions and methods of use thereof” (Wisconsin Alumni Research Foundation, priority 2012, dated 2019).

One assay has as its system S. aureus FRI 100. The experiment in a line: Minimum stationary-bactericidal concentration (MSC). Type of assay: cell-based, Staphylococcus aureus. To be noted: for MSC: S. aureus FRI 100, stationary cells, 24 hours. On the procedure: Determination of the Minimum Stationary-Bactericidal Concentration.
Cultures of C. crescentus (24 hour incubation) and S. aureus cells (5 day incubation) were grown from single colonies. Cells were collected by centrifugation (8500 rpm for 2.5 minutes) and re-suspended in M2 salt solution (for C. crescentus; 1.74 g/L Na2HPO4, 1.06 g/L KH2PO4, and 0.5 g/L NH4Cl) or phosphate-buffered saline (for S. aureus; PBS, Fisher Scientific). The centrifugation and re-suspension was repeated two more times. After the repeated washing steps, the cell suspension was diluted 10-fold to achieve approximately 10^8 cells/mL. Aliquots of the diluted cell suspension were transferred into wells of a 96-well plate (100 μL/well), and 2-fold serial dilutions were performed to test a range of antibiotic concentrations. The plate was sealed with Parafilm® and incubated for 24 hours at room temperature in the dark. After incubation, 50 μl was removed from each well to spread on nutrient agar plates (1.5% agar in PYE for C. crescentus, and LB for S. aureus). The colonies on each plate were counted after growing the cells for 1-2 days. For determining the kinetics of bactericidal activity of DCAP on stationary cultures, the washed cells were diluted by 100-fold in appropriate solutions and tested using a single concentration of the compound while including a DMSO control sample. Cell suspensions were kept in closed microcentrifuge tubes instead of the wells of 96-well plates. 100 μL of the suspensions was removed for plating at each time point. All MSC experiments were performed in static conditions.
In addition to its activity against actively growing bacteria, DCAP kills cells in stationary phase (Table 3). This property was tested against C. crescentus and S. aureus. […] To ensure that bacteria were deprived of nutrients, the cells were grown into late stationary phase (i.e., 24 hours for C. crescentus and 5 days for S. aureus). These cells were collected, suspended in isotonic solutions devoid of amino acids or sugars, and treated with a small molecule (DMSO, DCAP, CCCP or ampicillin). Cell viability was measured over time by plating culture aliquots on non-selective, solid growth media. The minimum concentration of antibiotic required to completely eliminate colony formation was designated as the minimum stationary-bactericidal concentration (MSC). […] CCCP inhibited the proliferation of C. crescentus cells regardless of their physiological status. However, the MSC of CCCP for S. aureus was >300-fold higher than the MIC. This dramatic decrease in the effectiveness of CCCP in S. aureus may be due to changes in membrane composition as cells adjust their metabolism in nutrient-deprived conditions.

Another assay concerns Venus-FtsA. As to the kind of experiment: Measurement of compound effects on FtsA localization. Type of assay: cell-based, Caulobacter crescentus. The settings on record: C. crescentus, 20 minutes. The method, then:
Measurement of compound effects on FtsA: For experiments with C. crescentus expressing Venus-FtsA, a synchronized population of cells was used. First, an overnight culture was grown with kanamycin (5 μg/mL) and glucose (0.02% w/v). The presence of glucose suppressed the transcription of venus-ftsA from its xylose-inducible promoter. 2 mL of this culture was diluted into 25 mL of fresh PYE with the antibiotic and glucose, and incubated further to achieve an absorbance of ˜0.6 (λ=600 nm). Once the cells reached mid-exponential phase, the culture was centrifuged for 10 minutes at 6000 rpm and 4° C. The cell pellet was resuspended in ice-cold M2 (a final volume of approximately 1000 μL) and 750 μL of this suspension was added to an equal-volume of sterile Percol (Sigma Aldrich). After thoroughly mixing the solution, it was centrifuged for 20 minutes at 11,000 rpm and 4° C. Upon centrifugation, the bottom band (swarmer cells) was taken and the cells were washed in ice-chilled M2 solution (1 mL). The washed cell pellet was suspended in fresh PYE containing kanamycin (no glucose, 6 mL). The cell suspension was incubated for 20 minutes and then xylose (0.03% w/v) was added to induce the expression of venus-ftsA. Cells were grown for another 20 minutes and subsequently treated with compounds. The cells were incubated for 20 minutes again in the presence of the compounds prior to imaging. Thus, the total time of xylose induction was 40 minutes, and the total time of compound treatment was 20 minutes. At this time point (60 minutes post synchrony), the majority of the cells were at the beginning of cell division. Imaging conditions and data analysis were identical to the conditions described for MipZ-YFP, except for a set of criteria used for defining ‘wildtype’ protein localization. ‘Wildtype’ was defined as 1) Venus-FtsA is unipolar, meaning there was one peak, and the peak resided within a polar region; and 2) Venus-FtsA was at the mid-cell, meaning there was one peak and it was within the mid-cell region (40-60% of the normalized cell length). […]

In the assay with S. aureus FRI 100, `N#CC(C#N)=NNc1cccc(Cl)c1` [CCCP, carbonyl cyanide m-chlorophenyl hydrazone] yielded an MSC of over 400 µM. In the assay with S. aureus FRI 100 (S. aureus, stationary vs growing cells), the “MSC relative to MIC” value was over 300 fold. Moreover, the values for the Venus-FtsA localization result in the assay with Venus-FtsA (CCCP at its minimum inhibitory concentration (5 μM)) and in the assay with Venus-FtsA (higher concentration of CCCP (25 μM)) were “did not alter the localization of FtsA” and “had a significant effect on the position of FtsA”, respectively.
`OCC(CO)(CO)NCC(O)Cn1c2ccc(Cl)cc2c2cc(Cl)ccc21` (stereo not shown) [DCAP, 2-((3-(3,6-dichloro-9H-carbazol-9-yl)-2-hydroxypropyl)amino)-2-(hydroxymethyl)propane-1,3-diol] came in with an MSC in the assay on S. aureus FRI 100 of 75 µM. Further, the “Minimum time required to obtain the MSC” value with S. aureus FRI 100 (S. aureus, data not shown) is 6 h. The Venus-FtsA localization result with Venus-FtsA (treated with DCAP) was “exhibited multiple peaks of FtsA fluorescence (≥2)”.
